{
  "source": "patent US11286459B2",
  "about": "“Cell culturing method using nucleic acid-containing medium” (Astellas Pharma Inc., priority 2015, dated 2022)",
  "type_in_all_cases": "cell-based, Chinese hamster",
  "key": {"[1]": {"tested_on": "IgG-expressing CHO cell line (anti-human α9 antibody RY9A2v12 (M34L) 012)", "assay": "Fed-batch culture with deoxyuridine, thymidine and/or deoxycytidine (Example 4)", "settings": "25 mg/L", "protocol": "Using a culture medium for animal cells as a cell growth medium, fed-batch culture of an IgG-expressing CHO cell line (a CHO cell line in which an anti-human α9 antibody ([…]) 012) had been recombinantly expressed, as described in WO 2009/088064) was started at an initial viable cell density of 1×10^6 cells/mL under the conditions of 36.5° C. and 5% CO2. At the start of culture, deoxyuridine, thymidine, and/or deoxycytidine was/were each added to a final concentration of 0 or 25 mg/L according to Table 2. The culture was continued until day 14 of culture while a feed culture medium was added everyday from day 2 of culture. Sampling was done at appropriate timings. Viable cell densities were measured by trypan blue exclusion method, and antibody concentrations were measured by protein A column HPLC. […] [table]"}, "[2]": {"tested_on": "IgG-expressing CHO cell line (anti-human α9 antibody RY9A2v12 (M34L) 012)", "assay": "Fed-batch culture, comparison with uridine and thymidine (Example 8)", "settings": "25 mg/L of each added component", "protocol": "Using a culture medium for animal cells as a cell growth medium, fed-batch culture of an IgG-expressing CHO cell line (a CHO cell line in which an anti-human α9 antibody ([…]) 012) had been recombinantly expressed, as described in WO 2009/088064) was started at an initial viable cell density of 1×10^6 cells/mL under the conditions of 36.5° C. and 5% CO2. At the start of culture, deoxyuridine, thymidine and deoxycytidine were each added to a final concentration of 25 mg/L. To provide comparative conditions, uridine and thymidine were added, at the start of culture, at concentrations of 7 mg/L and 0.24 mg/L, respectively (these concentrations are the same as those described in Examples of EP 1818392 B1). The culture was continued under each of the different conditions described above until day 14 of culture while a feed medium was added everyday from day 2 of culture. Sampling was done at appropriate timings. Viable cell densities were measured by trypan blue exclusion method, and antibody concentrations were measured by protein A column HPLC. […] In contrast, the highest viable cell densities were approximately 21×10^6 cells/mL in the case of addition of 25 mg/L deoxyuridine (dU25 mg/L), and about 31×10^6 cells/mL in the case of addition of 25 mg/L each of deoxyuridine, thymidine and deoxycytidine (dUdTdC25 mg/L); these values were higher than control."}, "[3]": {"tested_on": "Fab′ fragment-expressing CHO cell line (anti-human NGF antibody Fab′ fragment 1-15 (N52D-A)-Fab′)", "assay": "Fed-batch culture, comparison with uridine and thymidine (Example 9)", "settings": "25 mg/L of each added component", "protocol": "Using a culture medium for animal cells as a cell growth medium, fed-batch culture of a Fab′ fragment-expressing CHO cell line (a CHO cell line in which an anti-human NGF antibody Fab′ fragment (1-15 (N52D-A)-Fab′) had been expressed, as described in WO 2013/022083) was started at an initial viable cell density of 1×10^6 cells/mL under the conditions of 36.5° C. and 5% CO2. At the start of culture, deoxyuridine, thymidine and deoxycytidine were each added to a final concentration of 25 mg/L. To provide comparative conditions, uridine and thymidine were added, at the start of culture, at concentrations of 7 mg/L and 0.24 mg/L, respectively (these concentrations are the same as those described in Examples of EP 1818392 B1). The culture was continued under each of the different conditions described above until day 14 of culture while a feed medium was added everyday from day 2 of culture. Sampling was done at appropriate timings. Viable cell densities were measured by trypan blue exclusion method, and antibody concentrations were measured by reverse-phase HPLC."}, "[4]": {"tested_on": "IgG-expressing CHO cell line (anti-human TSLP receptor antibody, fully human T7-27)", "assay": "Fed-batch culture with deoxyuridine, thymidine and deoxycytidine added on day 2 (Example 3)", "settings": "25 mg/L of each added component", "protocol": "Using a culture medium for animal cells as a cell growth medium, fed-batch culture of an IgG-expressing CHO cell line (a CHO cell line in which an anti-human TSLP receptor antibody (fully human T7-27) had been recombinantly expressed, as described in WO 2015/020193) was started at an initial viable cell density of 1×10^6 cells/mL under the conditions of 36.5° C. and 5% CO2. On day 2 of culture, deoxyuridine was added to a final concentration of 25 mg/L, and thymidine and deoxycytidine were each added to cultures to a final concentration of 0 or 25 mg/L according to Table 1. The culture was continued until day 14 of culture while a feed culture medium was added everyday from day 2 of culture. Sampling was done at appropriate timings. Viable cell densities were measured by trypan blue exclusion method, and antibody concentrations were measured by protein A column HPLC. […] In contrast, in the case of addition of deoxyuridine in the presence of 25 mg/L each of thymidine and deoxycytidine (dU-dT-dC), the viable cell density, cell viability, and antibody concentration on the final day of the 14 days of culture were 12×10^6 cells/mL, approximately 78%, and 5.8 g/L, respectively; these values were higher than in the cases of addition of dU, addition of deoxyuridine and deoxycytidine (dU-dC), and addition of deoxyuridine and thymidine (dU-dT). […] [table]"}, "[5]": {"tested_on": "IgG-expressing CHO cell line (anti-human TSLP receptor antibody, fully human T7-27)", "assay": "Fed-batch culture, comparison with uridine and thymidine (Example 7)", "settings": "25 mg/L of each added component", "protocol": "Using a culture medium for animal cells as a cell growth medium, fed-batch culture of an IgG-expressing CHO cell line (a CHO cell line in which an anti-human TSLP receptor antibody (fully human T7-27) had been recombinantly expressed, as described in WO 2015/020193) was started at an initial viable cell density of 1×10^6 cells/mL under the conditions of 36.5° C. and 5% CO2. At the start of culture, deoxyuridine, thymidine and deoxycytidine were each added to a final concentration of 25 mg/L. To provide comparative conditions, uridine (U) and thymidine were added, at the start of culture, at concentrations of 7 mg/L and 0.24 mg/L, respectively (these concentrations are the same as those described in Examples of EP 1818392 B1). The culture was continued under each of the different conditions described above until day 14 of culture while a feed culture medium was added everyday from day 2 of culture. Sampling was done at appropriate timings. Viable cell densities were measured by trypan blue exclusion method, and antibody concentrations were measured by protein A column HPLC."}, "[6]": {"tested_on": "IgG-expressing CHO cell line (anti-human TSLP receptor antibody, fully human T7-27)", "assay": "Fed-batch culture with deoxyuridine added on day 2 (Example 1); trypan blue exclusion, protein A column HPLC", "protocol": "Using a culture medium for animal cells as a cell growth medium, fed-batch culture of an IgG-expressing CHO cell line (a CHO cell line in which an anti-human thymic stromal lymphopoietin (TSLP) receptor antibody (fully human T7-27) had been recombinantly expressed, as described in WO 2015/020193) was started at an initial viable cell density of 1×10^6 cells/mL under the conditions of 36.5° C. and 5% CO2. On day 2 of culture, deoxyuridine was added to cultures to a final concentration of 10, 25, 50, 100 or 200 mg/L. The culture was continued until day 14 of culture while a feed medium was added everyday from day 2 of culture. Sampling was done at appropriate timings. Viable cell densities were measured by trypan blue exclusion study, and antibody concentrations were measured by protein A column HPLC. […] It was also observed that even addition of […] deoxyuridine enhancedantibody production during the cell culture until day 10 to day 12."}, "[7]": {"tested_on": "IgG-expressing CHO cell line (anti-human TSLP receptor antibody, fully human T7-27)", "assay": "Fed-batch culture with deoxyuridine in the presence of thymidine and deoxycytidine (Example 2)", "settings": "for highest viable cell density observed during the 14 days of culture: at start of culture; for antibody concentration on the final day of culture: day 14", "protocol": "Using a culture medium for animal cells as a cell growth medium, fed-batch culture of an IgG-expressing CHO cell line (a CHO cell line in which an anti-human TSLP receptor antibody (fully human T7-27) had been recombinantly expressed, as described in WO 2015/020193) was started at an initial viable cell density of 1×10^6 cells/mL under the conditions of 36.5° C. and 5% CO2. At the start of culture, thymidine and deoxycytidine hydrochloride (in the working examples given in the subject specification, deoxycytidine hydrochloride was actually used as deoxycytidine, and the concentrations of deoxycytidine hydrochloride are expressed by using the converted concentration value of deoxycytidine from deoxycytidine hydrochloride.) were each added to cultures to a final concentration of 25 mg/L, and deoxyuridine was added to a final concentration of 10, 25, 40, 55, 70 or 85 mg/L. The culture was continued until day 14 of culture while a feed culture medium was added everyday from day 2 of culture. Sampling was done at appropriate timings. Viable cell densities were measured by trypan blue exclusion method, and antibody concentrations were measured by protein A column HPLC."}, "[8]": {"tested_on": "IgG-expressing CHO cell line (anti-human α9 integrin antibody RY9A2v12 (M34L) 012)", "assay": "Batch culture with deoxyuridine (Example 6)", "protocol": "Using a culture medium for animal cells as a cell growth medium, batch culture of an IgG-expressing CHO cell line (a CHO cell line in which an anti-human α9 integrin antibody (hereinafter referred to as “anti-human α9 antibody”) (RY9A2v12 (M34L) 012) had been recombinantly expressed, as described in WO 2009/088064) was started at an initial viable cell density of 0.3×10^6 cells/mL under the conditions of 36.5° C. and 5% CO2. At the start of culture, deoxyuridine was added to cultures to a final concentration of 5, 25, 100, 500 or 1000 mg/L, and then the culture was continued for 5 days. Sampling was done at appropriate timings. Viable cell densities were measured bytrypan blue exclusion method, and antibody concentrations were measured by protein A column HPLC."}, "[9]": {"settings": "10 mg/L deoxyuridine with 25 mg/L each thymidine and deoxycytidine"}, "[10]": {"settings": "25 mg/L deoxyuridine with 25 mg/L each thymidine and deoxycytidine"}},
  "data": [
    {"smiles": "Nc1ccn([C@H]2C[C@H](O)[C@@H](CO)O2)c(=O)n1", "note": "[deoxycytidine]", "values": [
      {"measurement": "effects when added alone (viable cell density, antibody concentration)", "setting": "[1]", "result": "no effect"}
    ]},
    {"smiles": "O=c1ccn([C@H]2C[C@H](O)[C@@H](CO)O2)c(=O)[nH]1", "note": "[deoxyuridine]", "values": [
      {"measurement": "highest viable cell density observed during the 14 days of culture", "setting": "[2]; at start of culture, control about 16", "result": "approximately 21 ×10^6 cells/mL"},
      {"measurement": "antibody concentrations during culture versus control", "setting": "[2]; FIG. 16", "result": "higher levels than control"},
      {"measurement": "effects when added alone (viable cell density, antibody concentration)", "setting": "[1]", "result": "produce effects"},
      {"measurement": "highest viable cell density observed during the 14 days of culture", "setting": "[3]; at start of culture, control approximately 14", "result": "approximately 26 ×10^6 cells/mL"},
      {"measurement": "protein concentration on the final day of culture", "setting": "[3]; day 14, control approximately 2.2", "result": "approximately 3.1 g/L"},
      {"measurement": "antibody concentration on the final day of the 14 days of culture", "setting": "[4]", "result": 5.1, "unit": "g/L"},
      {"measurement": "cell viability on the final day of the 14 days of culture", "setting": "[4]", "result": "approximately 61%"},
      {"measurement": "viable cell density on the final day of the 14 days of culture", "setting": "[4]", "result": "approximately 7.6 ×10^6 cells/mL"},
      {"measurement": "highest viable cell density observed during the 14 days of culture", "setting": "[5]; at start of culture, control approximately 12", "result": "approximately 21 ×10^6 cells/mL"},
      {"measurement": "antibody concentration on the final day of culture", "setting": "[5]; day 14, control approximately 2.9", "result": "approximately 4.6 g/L"},
      {"measurement": "antibody production during the cell culture until day 10 to day 12", "setting": "[6]; 10 mg/L deoxyuridine", "result": "enhanced"},
      {"measurement": "highest viable cell density observed during the 14 days of culture", "setting": "[6]; 25 mg/L deoxyuridine added on day 2, control about 10", "result": "about 18 ×10^6 cells/mL"},
      {"measurement": "antibody concentration on the final day of culture", "setting": "[6]; 25 mg/L deoxyuridine added on day 2, day 14, control 3.3", "result": 5.5, "unit": "g/L"},
      {"measurement": "response to deoxyuridine addition (cell growth and antibody production)", "setting": "[6]; any concentration tested from 10 mg/L to 200 mg/L", "result": "enhanced cell growth and antibody production"},
      {"measurement": "highest viable cell density observed during the 14 days of culture", "setting": "[7]; [9]", "result": "about 27 ×10^6 cells/mL"},
      {"measurement": "antibody concentration on the final day of culture", "setting": "[7]; [9]", "result": 5.9, "unit": "g/L"},
      {"measurement": "highest viable cell density observed during the 14 days of culture", "setting": "[7]; [10]", "result": "approximately 32 ×10^6 cells/mL"},
      {"measurement": "antibody concentration on the final day of culture", "setting": "[7]; [10]", "result": 6.8, "unit": "g/L"},
      {"measurement": "enhancing effects on cell growth and antibody production", "setting": "[7]; deoxyuridine 25 mg/L or higher in the presence of thymidine and deoxycytidine, versus 10 mg/L", "result": "higher enhancing effects on cell growth and antibody production"},
      {"measurement": "highest viable cell density observed during the 5 days of culture", "setting": "[8]; 100 mg/L deoxyuridine at start of batch culture, control approximately 7", "result": "approximately 10 ×10^6 cells/mL"},
      {"measurement": "effect on cell growth", "setting": "[8]; any concentration tested from 5 mg/L to 500 mg/L", "result": "enhancing effect on cell growth"}
    ]},
    {"smiles": "Cc1cn([C@H]2C[C@H](O)[C@@H](CO)O2)c(=O)[nH]c1=O", "note": "[thymidine]", "values": [
      {"measurement": "effects when added alone (viable cell density, antibody concentration)", "setting": "[1]", "result": "produce effects"}
    ]}
  ]
}
